Laboratory results published in patent US20250368627A1, “PYRAZOLESULFONAMIDES AS ANTITUMOR AGENTS” (Peloton Therapeutics, Inc., a fully owned subsidiary of …, priority 2019, published 2025).

Tests used:
[1] = molecular target: T1, DDB1DB/DCAF15 and RBM39 R1R2 complex (Homo sapiens, UniProt Q14498+Q66K64); assay: DCAF15 RBM39 Complex Formation Assay (FRET); assay type: binding; details: FRET ratio Em 665/Em 615, incubated overnight at 4° C.
T1 construct: Amino acids 150 to 331 of RBM39 were cloned into pGEX4T3; GST (from vector pGEX4T3); TEV cleavage site (N); made in house; host or cells: DDB1DB/His-DCAF15: baculovirus/Sf9 co-expression; RBM39 R1R2: E. coli (pGEX4T3)
How it was run: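 Ternary complex formation read by TR-FRET (Em 665/615, excitation 340 nm) after overnight incubation at 4° C of 20 nM baculovirus DDB1DB/His-DCAF15 and 50 nM E. coli RBM39 RRM1-RRM2 FLAG fragment with 14-point, 3-fold compound dilutions from 1 μM; EC50 from 4-parameter fit.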

[2] = tested on: HCT116 human colorectal carcinoma cells; assay: CellTiter-Glo Luminescent Cell Viability Assay; assay type: cell-based; details: HCT-116, 72 h, 3 days
Description: HCT116 human colorectal carcinoma cells were used in these experiments. HCT116 cells were obtained from ATCC. CellTiter-Glo® Luminescent Cell Viability Assay Reagent was obtained from Promega.
About 3,000 cells were seeded into 96-well plate with […] of media (DMEM supplemented with 10% FBS, 100 units penicillin, and […] streptomycin per mL) the day before the experiment. For compound treatment, the master plate was prepared as follows: 100× compound stocks were prepared in a 96-well plate by 1 to 3 serial dilutions of 0.5 mM DMSO stocks. Each master plate contained serial dilution of 8 compounds, including the control compound E7820. […] of 100× compound stock was added to each well of the assay plate to give final concentrations of […]. Each concentration was tested in triplicate. After 3 days, cell viability was determined using CellTiter-Glo Luminescent Cell Viability Assay Reagent following the manufacturer's recommended protocol. Briefly, […] of CellTiter-Glo reagent was added to each well of the assay plate and the contents were mixed for 3 minutes at 600 rpm on a shaker (Thermomixer R). The plate was immediately placed in a plate reader (Synergy 2) and the luminescence signal (0.5 second per well integration time) was determined. IC50 values were calculated using Dotmatics software.

T1 sequence (Q66K64 whole entry, the tested form may be a part): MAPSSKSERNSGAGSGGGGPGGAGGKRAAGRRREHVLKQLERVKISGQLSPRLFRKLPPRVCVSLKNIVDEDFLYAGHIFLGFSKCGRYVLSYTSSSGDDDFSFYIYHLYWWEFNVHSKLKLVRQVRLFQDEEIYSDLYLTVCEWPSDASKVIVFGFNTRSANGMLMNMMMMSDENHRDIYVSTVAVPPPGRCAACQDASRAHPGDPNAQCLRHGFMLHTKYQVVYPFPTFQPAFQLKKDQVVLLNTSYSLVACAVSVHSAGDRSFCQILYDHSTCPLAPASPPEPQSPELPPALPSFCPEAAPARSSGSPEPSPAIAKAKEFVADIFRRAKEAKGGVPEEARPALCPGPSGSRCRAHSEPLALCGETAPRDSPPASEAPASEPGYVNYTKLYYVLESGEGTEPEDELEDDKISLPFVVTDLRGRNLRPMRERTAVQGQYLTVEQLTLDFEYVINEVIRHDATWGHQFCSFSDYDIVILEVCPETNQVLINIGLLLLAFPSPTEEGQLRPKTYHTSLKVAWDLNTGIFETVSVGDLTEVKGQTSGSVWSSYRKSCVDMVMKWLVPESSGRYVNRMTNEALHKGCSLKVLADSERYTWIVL
T1 sequence (Q14498 150-331): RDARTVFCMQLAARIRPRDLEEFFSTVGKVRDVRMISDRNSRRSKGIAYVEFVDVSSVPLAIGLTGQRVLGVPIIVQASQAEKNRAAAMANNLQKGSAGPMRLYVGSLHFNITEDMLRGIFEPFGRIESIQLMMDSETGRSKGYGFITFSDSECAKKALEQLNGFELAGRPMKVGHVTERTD
T1 sequence (Q16531 with tags, fused parts or gaps DEL396-708 partner): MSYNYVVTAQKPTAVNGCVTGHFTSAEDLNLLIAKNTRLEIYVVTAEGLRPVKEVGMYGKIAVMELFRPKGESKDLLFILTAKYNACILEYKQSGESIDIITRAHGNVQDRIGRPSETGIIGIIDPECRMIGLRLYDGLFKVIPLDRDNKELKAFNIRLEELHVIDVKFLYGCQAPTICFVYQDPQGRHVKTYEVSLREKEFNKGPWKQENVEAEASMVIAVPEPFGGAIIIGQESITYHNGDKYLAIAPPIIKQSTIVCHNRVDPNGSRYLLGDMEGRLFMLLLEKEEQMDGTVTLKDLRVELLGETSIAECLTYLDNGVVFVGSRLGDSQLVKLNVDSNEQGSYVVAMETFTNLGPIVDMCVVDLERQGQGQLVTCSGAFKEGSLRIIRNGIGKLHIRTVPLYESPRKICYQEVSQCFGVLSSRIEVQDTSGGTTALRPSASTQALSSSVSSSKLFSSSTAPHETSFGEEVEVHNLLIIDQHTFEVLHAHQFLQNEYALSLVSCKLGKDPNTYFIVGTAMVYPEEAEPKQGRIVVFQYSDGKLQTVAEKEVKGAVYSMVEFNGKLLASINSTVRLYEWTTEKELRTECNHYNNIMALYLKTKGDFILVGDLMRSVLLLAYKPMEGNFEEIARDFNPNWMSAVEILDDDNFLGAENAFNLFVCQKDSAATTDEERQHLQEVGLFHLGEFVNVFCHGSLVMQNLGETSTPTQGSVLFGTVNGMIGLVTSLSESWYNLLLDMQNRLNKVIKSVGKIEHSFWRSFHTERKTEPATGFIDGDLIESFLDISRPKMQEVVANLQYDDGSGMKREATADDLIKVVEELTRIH

Compound	IC50 [1] [nM]	EC50 [2] [nM]
Cc1ccc(NS(=O)(=O)c2cnn(CC3(F)COC3)c2)c2[nH]cc(C#N)c12 [Compound 72, N-(3-cyano-4-methyl-1H-indol-7-yl)-1-[(3-fluorooxetan-3-yl)methyl]pyrazole-4-sulfonamide]	< 250	250 to 1000
Cc1ccc(NS(=O)(=O)c2cnn(CCCF)c2)c2[nH]cc(C#N)c12 [Compound 73, N-(3-cyano-4-methyl-1H-indol-7-yl)-1-(3-fluoropropyl)pyrazole-4-sulfonamide]	< 250	< 250
Cc1ccc(NS(=O)(=O)c2cnn(C)c2)c2[nH]ccc12 [Compound 74, 1-methyl-N-(4-methyl-1H-indol-7-yl)pyrazole-4-sulfonamide]	> 1000	> 1000
Cc1ccc(NS(=O)(=O)c2cnn(C)c2)c2[nH]cc(Cl)c12 [Compound 75, N-(3-chloro-4-methyl-1H-indol-7-yl)-1-methyl-pyrazole-4-sulfonamide]	< 250	< 250
Cc1ccc(NS(=O)(=O)c2cnn(CC(C)(C)C#N)c2)c2[nH]cc(C#N)c12 [Compound 76, N-(3-cyano-4-methyl-1H-indol-7-yl)-1-(2-cyano-2-methyl-propyl)pyrazole-4-sulfonamide]	< 250	250 to 1000
Cc1ccc(NS(=O)(=O)c2cnn(CCC#N)c2)c2[nH]cc(C#N)c12 [Compound 77, 1-(2-Cyanoethyl)-N-(3-cyano-4-methyl-1H-indol-7-yl)pyrazole-4-sulfonamide]	< 250	< 250
Cc1ccc(NS(=O)(=O)c2cnn(CC3CCC3)c2)c2[nH]cc(C#N)c12 [Compound 78, N-(3-cyano-4-methyl-1H-indol-7-yl)-1-(cyclobutylmethyl)pyrazole-4-sulfonamide]	< 250	250 to 1000
Cc1ccc(NS(=O)(=O)c2cnn(CC3CC3(F)F)c2)c2[nH]cc(C#N)c12 (stereo not drawn) [Compound 79, N-(3-cyano-4-methyl-1H-indol-7-yl)-1-[(2,2-difluorocyclopropyl)methyl]pyrazole-4-sulfonamide]	< 250	250 to 1000
C=C(CF)n1cc(S(=O)(=O)Nc2ccc(C)c3c(C#N)c[nH]c23)cn1 [Compound 80, N-(3-cyano-4-methyl-1H-indol-7-yl)-1-[1-(fluoromethyl)vinyl]pyrazole-4-sulfonamide]	< 250	< 250
Cn1cc(S(=O)(=O)Nc2ccc(Cl)c3c(Cl)c[nH]c23)cn1 [Compound 81, N-(3,4-dichloro-1H-indol-7-yl)-1-methyl-pyrazole-4-sulfonamide]	< 250	< 250
Cn1cc(S(=O)(=O)Nc2ccc(Cl)c3c(C#N)c[nH]c23)cn1 [Compound 82, N-(4-chloro-3-cyano-1H-indol-7-yl)-1-methyl-pyrazole-4-sulfonamide]	< 250	< 250
O=S(=O)(Nc1cccc2c(Cl)c[nH]c12)c1cnn(C2CC(O)C2)c1 (stereo not drawn) [Compound 83, N-(3-chloro-1H-indol-7-yl)-1-(3-hydroxycyclobutyl)pyrazole-4-sulfonamide]	< 250	250 to 1000
Cc1ccc(NS(=O)(=O)c2cnn(CC(C)(C)S(C)(=O)=O)c2)c2[nH]cc(C#N)c12 [Compound 84, N-(3-cyano-4-methyl-1H-indol-7-yl)-1-(2-methyl-2-methylsulfonyl-propyl)pyrazole-4-sulfonamide]	< 250	> 1000
Cc1ccc(NS(=O)(=O)c2cnn(C3CC4(COC4)C3)c2)c2[nH]cc(C#N)c12 [Compound 85, N-(3-cyano-4-methyl-1H-indol-7-yl)-1-(2-oxaspiro[3.3]heptan-6-yl)pyrazole-4-sulfonamide]	< 250	250 to 1000
Cc1ccc(NS(=O)(=O)c2cnn(C3CCC(F)(F)CC3)c2)c2[nH]cc(C#N)c12 [Compound 86, N-(3-cyano-4-methyl-1H-indol-7-yl)-1-(4,4-difluorocyclohexyl)pyrazole-4-sulfonamide]	< 250	250 to 1000
